According to US20040180888A1 (priority 2001, published 2004):
Where two headings read alike, the source gives them in different places.

Columns and labels:
HIV-1 = details: for (Nx) protein binding shift α-GP 1 mg/mL: EC90 with 1 mg/mL glycoprotein versus RPMI; for (Nx) protein binding shift HSA 45 mg/mL: EC90 with 45 mg/mL HSA versus RPMI
mock-infected MT-4 cells = assay: Viability of mock-infected MT-4 cells, MTT method; type: cell-based
[1] = Viability of mock-infected MT-4 cells, MTT method; type: cell-based; details: human; mock-infected MT-4 cells, MTT
HIV-1 K103N-Y181C = assay: microbe, parasite or virus in culture; type: cell-based; details: for K103N-Y181C (Nx) resistance shift: EC50 K103N-Y181C versus WTIIIB
HIV-1 WTIIIB [2] = assay: Protection of MT-4 cells from HIV-1-induced cytopathogenicity, MTT method, WTIIIB; type: cell-based
Excerpt: Example 26 illustrates the influence of substituents at positions 4, 5, 6, and 7 of the indole ring, in which position 2 of the indole ring is maintained constant, and the substitution at the 3,5-position of the phenyl ring is either hydrogen or held constant with a 3,5-dimethyl substitution. Table 3 presents the influence of these variations on the ability of the compounds to protect cells from HIV-1 induced pathogenecity.

HIV-1 WTIIIB [3] = assay: p24 reduction in virus-infected C8166 cells, WTIIIB; type: cell-based
HIV-1 Y181C = assay: microbe, parasite or virus in culture; type: cell-based; details: for Y181C (Nx) resistance shift: EC50 Y181C versus WTIIIB
HIV-1 K103R = assay: microbe, parasite or virus in culture; type: cell-based; details: for K103R (Nx) resistance shift: EC90 K103R versus WTIIIB
[4] = read-out: EC90 HSA 45 mg/mL, HIV-1-infected MT-4 cells, RPMI 10% FCS plus 45 mg/mL human serum albumin
[5] = read-out: EC90 RPMI, reduce p24 by 90% in HIV-1-infected MT-4 cells, RPMI 10% FCS
[6] = read-out: EC90 α-GP 1 mg/mL, HIV-1-infected MT-4 cells, RPMI 10% FCS plus 1 mg/mL glycoprotein
[7] = Human immunodeficiency virus 1, MT4, read-out: K103N-Y181C EC50
[8] = Human immunodeficiency virus 1, MT4, 50% protection of MT-4 cells
[9] = Human immunodeficiency virus 1, MT4, read-out: Y181C EC50
[10] = 50% protection of MT-4 cells, MTT, read-out: K103N-Y181C EC50
[11] = reduce p24 by 90% in virus-infected C8166 cells, read-out: WTIIIB EC90
[12] = 50% protection of MT-4 cells, MTT, read-out: Y181C EC50
[13] = reduce p24 by 90% in virus-infected C8166 cells, read-out: K103R EC90

With “5-Chloro-3-(3,5-dimethylphenylsulfonyl)-indole-2-carboxyamide [compound 2]” the “(Nx) protein binding shift α-GP 1 mg/mL” value (HIV-1) was 2 x, the “(Nx) protein binding shift HSA 45 mg/mL” value (HIV-1) was 40 x and the EC90 (HIV-1; [4]) was 200 nM. The EC90 (HIV-1; [5]) was 5 nM and the EC90 (HIV-1; [6]) was 10 nM.
With `Cc1cc(C)cc(S(=O)(=O)c2c(CC(N)=O)[nH]c3ccc(Cl)c(F)c23)c1` [5g, 5-Chloro-3-(3,5-dimethylphenylsulfonyl)-4-fluoroindole-2-carboxyamide] the melting point was 268 to 270 °C.
`Cc1cc(C)cc(S(=O)(=O)c2c(CC(N)=O)[nH]c3ccc(F)c(Cl)c23)c1` [5h, 4-Chloro-3-(3,5-dimethylphenylsulfonyl)-5-fluoroindole-2-carboxyamide] gave a melting point of 279 to 280 °C.
In the case of `Cc1cc(C)cc(S(=O)(=O)c2c(CC(N)=O)[nH]c3cc(Cl)c(F)cc23)c1` [5i, 6-Chloro-3-(3,5-dimethylphenylsulfonyl)-5-fluoroindole-2-carboxyamide], the melting point is reported as 262 to 264 °C.
`Cc1cc(C)cc(S(=O)(=O)c2c(CC(N)=O)[nH]c3ccc([N+](=O)[O-])cc23)c1` [5k, 5-Nitro-3-(3,5-dimethylphenylsulfonyl)indole-2-carboxyamide] gave a melting point of 270 to 272 °C.
`CC(=O)c1ccc2[nH]c(CC(N)=O)c(Sc3cc(C)cc(C)c3)c2c1` [5l, 5-Acetyl-3-(3,5-dimethylphenylthio)indole-2-carboxyamide] gave a melting point of over 300 °C.
`NC(=O)Cc1[nH]c2ccc(-n3cccc3)cc2c1S(=O)(=O)c1ccccc1` [25a, 5-(1H-Pyrrol-1-yl)-3-(phenylsulfonyl)indole-2-carboxyamide] showed a melting point of 250 °C.
Compound `CNNC(=O)c1[nH]c2ccc(Cl)cc2c1S(=O)(=O)c1cc(C)cc(C)c1` [Compd 10] has a CC50 (mock-infected MT-4 cells) of over 200000 nM.
Work on `Cc1cc(C)cc(S(=O)(=O)c2c(C(=O)NNC(C)C)[nH]c3ccc(Cl)cc23)c1` [Compd 11] yielded a CC50 (mock-infected MT-4 cells) of 17000 nM.
`Cc1cc(C)cc(S(=O)(=O)c2c(C(=O)N3CCN(C)CC3)[nH]c3ccc(Cl)cc23)c1` [Compd 13] gave a CC50 (mock-infected MT-4 cells) of over 200000 nM.
For `O=C1Nc2ccc(Cl)cc2[C@@](C#CC2CC2)(C(F)(F)F)O1` [EFV, efavirenz, reference compound], the CC50 [1] was 35000 nM, the EC50 (HIV-1 K103N-Y181C; [7]) was 150 nM and the EC50 (HIV-1 WTIIIB [2]; [8]) was 4 nM. The EC90 (HIV-1 WTIIIB [3]; Human immunodeficiency virus 1, C8166, read-out: WTIIIB EC90) was 8 nM, the EC50 (HIV-1 Y181C; [9]) was 25 nM and the EC90 (HIV-1 K103R; Human immunodeficiency virus 1, C8166, read-out: K103R EC90) was 1800 nM.
`Cc1ccnc2c1NC(=O)c1cccnc1N2C1CC1` [NVP, nevirapine, reference compound] gave a CC50 [1] of 200000 nM, an EC50 (HIV-1 K103N-Y181C; [7]) of over 30000 nM and an EC50 (HIV-1 WTIIIB [2]; [8]) of 370 nM. The EC50 (HIV-1 Y181C; [9]) was over 30000 nM.
With `NC(=O)c1[nH]c2ccc(Cl)cc2c1S(=O)(=O)c1ccccc1` [compound 1] the “(Nx) protein binding shift α-GP 1 mg/mL” value (HIV-1) was 2 x, the “(Nx) protein binding shift HSA 45 mg/mL” value (HIV-1) was 10 x and the EC90 (HIV-1; [4]) was 10 nM. It also gave an EC90 (HIV-1; [5]) of 1 nM and an EC90 (HIV-1; [6]) of 2 nM.
In the case of `Cc1cc(C)cc(S(=O)(=O)c2c(C(=O)NNCCO)[nH]c3ccc(Cl)cc23)c1` [compound 3, 5-Chloro-3-(3,5-dimethylphenylsulfonyl)indole-2-[N′-(2-hydroxy-ethyl)]-carboxyhydrazide], the “(Nx) protein binding shift α-GP 1 mg/mL” value (HIV-1) is reported as 7 x, the “(Nx) protein binding shift HSA 45 mg/mL” value (HIV-1) is reported as 67 x and the EC90 (HIV-1; [4]) is reported as 270 nM. The EC90 (HIV-1; [5]) was 4 nM and the EC90 (HIV-1; [6]) was 30 nM.
With `Cc1cc(C)cc(S(=O)(=O)c2c(C(=O)NCC(N)=O)[nH]c3ccc(Cl)cc23)c1` [compound 4, 2-[N-[5-Chloro-3-(3,5-dimethylphenylsulfonyl)indol-2-carboxy-amido]]-acetamide] the CC50 (mock-infected MT-4 cells) was 30000 nM, the “(Nx) protein binding shift α-GP 1 mg/mL” value (HIV-1) was 3 x and the “(Nx) protein binding shift HSA 45 mg/mL” value (HIV-1) was 80 x. For the same compound, the EC90 (HIV-1; [4]) was 4800 nM, the EC90 (HIV-1; [5]) was 60 nM and the EC90 (HIV-1; [6]) was 200 nM. The EC50 (HIV-1 K103N-Y181C; [10]) was 800 nM, the “K103N-Y181C (Nx) resistance shift” value (HIV-1 K103N-Y181C) was 133 x and the EC50 (HIV-1 WTIIIB [2]; 50% protection of MT-4 cells) was 6 nM. The EC90 (HIV-1 WTIIIB [3]; [11]) was 10 nM, the EC50 (HIV-1 Y181C; [12]) was 30 nM and the “Y181C (Nx) resistance shift” value (HIV-1 Y181C) was 5 x. The “K103R (Nx) resistance shift” value (HIV-1 K103R) was 10 x and the EC90 (HIV-1 K103R; [13]) was 100 nM.
For `NC(=O)c1[nH]c2cc(Cl)c(Cl)cc2c1S(=O)(=O)c1ccccc1` [compound 8], the CC50 (mock-infected MT-4 cells) was 123000 nM, the EC50 (HIV-1 K103N-Y181C; [10]) was over 100000 nM and the “K103N-Y181C (Nx) resistance shift” value (HIV-1 K103N-Y181C) was over 714 x. The EC50 (HIV-1 WTIIIB [2]; 50% protection of MT-4 cells) was 140 nM, the EC90 (HIV-1 WTIIIB [3]; [11]) was 170 nM and the EC50 (HIV-1 Y181C; [12]) was 2600 nM. The “Y181C (Nx) resistance shift” value (HIV-1 Y181C) was 18 x, the “K103R (Nx) resistance shift” value (HIV-1 K103R) was 94 x and the EC90 (HIV-1 K103R; [13]) was 16000 nM.
In the case of `Cc1cc(C)cc(S(=O)(=O)c2c(CC(N)=O)[nH]c3c(Cl)cc(Cl)cc23)c1` [compound 10, 5,7-Dichloro-3-(3,5-dimethylphenylsulfonyl)indole-2-carboxyamide], the melting point is reported as over 300 °C.
`Cc1cc(C)cc(S(=O)(=O)c2c(CC(N)=O)[nH]c3ccc(F)c(F)c23)c1` [compound 11, 3-(3,5-Dimethylphenylsulfonyl)-4,5-difluoroindole-2-carboxyamide] showed a melting point of 298 to 300 °C.
For `Cc1cc(C)cc(S(=O)(=O)c2c(C(N)=O)[nH]c3cc(F)c(F)cc23)c1` [compound 12, 3-(3,5-Dimethylpbenylsulfonyl)-5,6-difluoroindole-2-carboxyamide], the EC50 (HIV-1 K103N-Y181C; [10]) was 2600 nM, the “K103N-Y181C (Nx) resistance shift” value (HIV-1 K103N-Y181C) was at least 866 x and the EC50 (HIV-1 WTIIIB [2]; 50% protection of MT-4 cells) was at most 3 nM. For the same compound, the EC50 (HIV-1 Y181C; [12]) was 70 nM and the “Y181C (Nx) resistance shift” value (HIV-1 Y181C) was “(≧23.3) x”.
`Cc1cc(C)cc(S(=O)(=O)c2c(CC(N)=O)[nH]c3c(F)cc(F)cc23)c1` [compound 13, 3-(3,5-Dimethylphenylsulfonyl)-5,7-difluoroindole-2-carboxyamide] showed a melting point of over 300 °C.
